# System: Ctenocephalides felis
# Experiment: Pulse vs. single dose administration per os to dogs, flea infestation comb counts
# Assay type: in vivo
# Procedure: Pulse vs. Single dose administration per os to dogs/Ctenocephalides felis Another dog study was undertaken to evaluate the effect on flea infestation of 1) oral administration of a single point dose of 60 mg/kg; 2) oral administration of a pulsed dosing scheme of 20 mg/kg TID every 2 hours for one day; 3) oral administration of a pulsed dosing scheme of 20 mg/kg TID every 4 hours for one day; and 4) post-treatment plasma concentration of spinetoram.
# Four treatment groups of 8 dogs each (4 male: 4 female) were dosed spinetoram as follows:
# Treatment Group 1: 60 mg/kg, single dose
# Treatment Group 2: 60 mg/kg, (20 mg/kg every 2 hours, three times)
# Treatment Group 3: 60 mg/kg, (20 mg/kg every 4 hours, three times)
# Treatment Group 4: 0 mg/kg, (negative control)
# The dogs were housed individually in concrete-floored chain-link kennels both inside and outside. During the study period the dogs were fed a dry dog chow, except for two days prior to and the day of treatment (day 0) when they received wet canned food. The dogs had ad libitum access to water.
# The treated dogs received one or more gelatin capsules containing technical active spinetoram powder by mouth, with treatment group 4 receiving placebo. Each dog was experimentally infested with about 100 fleas on test days—1,5,12,19, 28, 35, 42, 49, and 56. Knockdown assessments were conducted 24 hours after dosing, with residual efficacy evaluated subsequently at 48 hours after each subsequent infestation. The day 1 comb count served to determine the initial/knockdown efficacy, approximately 24 hours after the 60 mg/kg dose, or the first of the pulse dose. Blood samples were drawn to determine concentration of spinetoram in plasma.
substance,measurement,setting,value
Spinetoram,geometric mean live adult flea count,"oral 20 mg/kg TID@2 h, Day 1",0.0
same,geometric mean percent reduction in live adult flea counts compared to the untreated control group,"oral 20 mg/kg TID@2 h, Day 1",(100) percent
same,geometric mean live adult flea count,"oral 20 mg/kg TID@2 h, Day 7",0.0
same,geometric mean percent reduction in live adult flea counts compared to the untreated control group,"oral 20 mg/kg TID@2 h, Day 7",(100) percent
same,geometric mean live adult flea count,"oral 20 mg/kg TID@2 h, Day 14",0.0
same,geometric mean percent reduction in live adult flea counts compared to the untreated control group,"oral 20 mg/kg TID@2 h, Day 14",(100) percent
same,geometric mean live adult flea count,"oral 20 mg/kg TID@2 h, Day 21",0.0
same,geometric mean percent reduction in live adult flea counts compared to the untreated control group,"oral 20 mg/kg TID@2 h, Day 21",(100) percent
same,geometric mean live adult flea count,"oral 20 mg/kg TID@2 h, Day 30",0.0
same,geometric mean percent reduction in live adult flea counts compared to the untreated control group,"oral 20 mg/kg TID@2 h, Day 30",(100) percent
same,geometric mean live adult flea count,"oral 20 mg/kg TID@2 h, Day 37",0.0
same,geometric mean percent reduction in live adult flea counts compared to the untreated control group,"oral 20 mg/kg TID@2 h, Day 37",(100) percent
same,geometric mean live adult flea count,"oral 20 mg/kg TID@2 h, Day 44",0.0
same,geometric mean percent reduction in live adult flea counts compared to the untreated control group,"oral 20 mg/kg TID@2 h, Day 44",(100) percent
same,geometric mean live adult flea count,"oral 20 mg/kg TID@2 h, Day 51",0.0
same,geometric mean percent reduction in live adult flea counts compared to the untreated control group,"oral 20 mg/kg TID@2 h, Day 51",(100) percent
same,geometric mean live adult flea count,"oral 20 mg/kg TID@2 h, Day 58",0.0
same,geometric mean percent reduction in live adult flea counts compared to the untreated control group,"oral 20 mg/kg TID@2 h, Day 58",(100) percent
same,geometric mean live adult flea count,"oral 20 mg/kg TID@2 h, Day 72",0.0
same,geometric mean percent reduction in live adult flea counts compared to the untreated control group,"oral 20 mg/kg TID@2 h, Day 72",(100) percent
same,geometric mean live adult flea count,"oral 20 mg/kg TID@2 h, Day 86",6.4
same,geometric mean percent reduction in live adult flea counts compared to the untreated control group,"oral 20 mg/kg TID@2 h, Day 86",(91.7) percent
same,geometric mean live adult flea count,"oral 20 mg/kg TID@2 h, Day 93",2.5
same,geometric mean percent reduction in live adult flea counts compared to the untreated control group,"oral 20 mg/kg TID@2 h, Day 93",(96.7) percent
same,geometric mean live adult flea count,"oral 20 mg/kg TID@2 h, Day 100",10.0
same,geometric mean percent reduction in live adult flea counts compared to the untreated control group,"oral 20 mg/kg TID@2 h, Day 100",(88.0) percent
same,geometric mean live adult flea count,"oral 20 mg/kg TID@2 h, Day 107",4.8
same,geometric mean percent reduction in live adult flea counts compared to the untreated control group,"oral 20 mg/kg TID@2 h, Day 107",(94.1) percent
same,geometric mean live adult flea count,"oral 20 mg/kg TID@4 h, Day 1",0.0
same,geometric mean percent reduction in live adult flea counts compared to the untreated control group,"oral 20 mg/kg TID@4 h, Day 1",(100) percent
same,geometric mean live adult flea count,"oral 20 mg/kg TID@4 h, Day 7",0.0
same,geometric mean percent reduction in live adult flea counts compared to the untreated control group,"oral 20 mg/kg TID@4 h, Day 7",(100) percent
same,geometric mean live adult flea count,"oral 20 mg/kg TID@4 h, Day 14",0.0
same,geometric mean percent reduction in live adult flea counts compared to the untreated control group,"oral 20 mg/kg TID@4 h, Day 14",(100) percent
same,geometric mean live adult flea count,"oral 20 mg/kg TID@4 h, Day 21",0.0
same,geometric mean percent reduction in live adult flea counts compared to the untreated control group,"oral 20 mg/kg TID@4 h, Day 21",(100) percent
same,geometric mean live adult flea count,"oral 20 mg/kg TID@4 h, Day 30",0.2
same,geometric mean percent reduction in live adult flea counts compared to the untreated control group,"oral 20 mg/kg TID@4 h, Day 30",(99.8) percent
same,geometric mean live adult flea count,"oral 20 mg/kg TID@4 h, Day 37",0.0
same,geometric mean percent reduction in live adult flea counts compared to the untreated control group,"oral 20 mg/kg TID@4 h, Day 37",(100) percent
same,geometric mean live adult flea count,"oral 20 mg/kg TID@4 h, Day 44",0.0
same,geometric mean percent reduction in live adult flea counts compared to the untreated control group,"oral 20 mg/kg TID@4 h, Day 44",(100) percent
same,geometric mean live adult flea count,"oral 20 mg/kg TID@4 h, Day 51",0.2
same,geometric mean percent reduction in live adult flea counts compared to the untreated control group,"oral 20 mg/kg TID@4 h, Day 51",(99.7) percent
same,geometric mean live adult flea count,"oral 20 mg/kg TID@4 h, Day 58",0.0
same,geometric mean percent reduction in live adult flea counts compared to the untreated control group,"oral 20 mg/kg TID@4 h, Day 58",(100) percent
same,geometric mean live adult flea count,"oral 20 mg/kg TID@4 h, Day 72",0.2
same,geometric mean percent reduction in live adult flea counts compared to the untreated control group,"oral 20 mg/kg TID@4 h, Day 72",(99.8) percent
same,geometric mean live adult flea count,"oral 20 mg/kg TID@4 h, Day 86",4.7
same,geometric mean percent reduction in live adult flea counts compared to the untreated control group,"oral 20 mg/kg TID@4 h, Day 86",(93.8) percent
same,geometric mean live adult flea count,"oral 20 mg/kg TID@4 h, Day 93",4.8
same,geometric mean percent reduction in live adult flea counts compared to the untreated control group,"oral 20 mg/kg TID@4 h, Day 93",(93.7) percent
same,geometric mean live adult flea count,"oral 20 mg/kg TID@4 h, Day 100",11.4
same,geometric mean percent reduction in live adult flea counts compared to the untreated control group,"oral 20 mg/kg TID@4 h, Day 100",(86.3) percent
same,geometric mean live adult flea count,"oral 20 mg/kg TID@4 h, Day 107",8.5
same,geometric mean percent reduction in live adult flea counts compared to the untreated control group,"oral 20 mg/kg TID@4 h, Day 107",(89.6) percent
same,geometric mean live adult flea count,"oral 60 mg/kg SID, Day 1",0.0
same,geometric mean percent reduction in live adult flea counts compared to the untreated control group,"oral 60 mg/kg SID, Day 1",(100) percent
same,geometric mean live adult flea count,"oral 60 mg/kg SID, Day 7",0.0
same,geometric mean percent reduction in live adult flea counts compared to the untreated control group,"oral 60 mg/kg SID, Day 7",(100) percent
same,geometric mean live adult flea count,"oral 60 mg/kg SID, Day 14",0.0
same,geometric mean percent reduction in live adult flea counts compared to the untreated control group,"oral 60 mg/kg SID, Day 14",100) percent
same,geometric mean live adult flea count,"oral 60 mg/kg SID, Day 21",0.0
same,geometric mean percent reduction in live adult flea counts compared to the untreated control group,"oral 60 mg/kg SID, Day 21",(100) percent
same,geometric mean live adult flea count,"oral 60 mg/kg SID, Day 30",0.0
same,geometric mean percent reduction in live adult flea counts compared to the untreated control group,"oral 60 mg/kg SID, Day 30",(100) percent
same,geometric mean live adult flea count,"oral 60 mg/kg SID, Day 37",0.0
same,geometric mean percent reduction in live adult flea counts compared to the untreated control group,"oral 60 mg/kg SID, Day 37",(100) percent
same,geometric mean live adult flea count,"oral 60 mg/kg SID, Day 44",0.0
same,geometric mean percent reduction in live adult flea counts compared to the untreated control group,"oral 60 mg/kg SID, Day 44",(100) percent
same,geometric mean live adult flea count,"oral 60 mg/kg SID, Day 51",0.0
same,geometric mean percent reduction in live adult flea counts compared to the untreated control group,"oral 60 mg/kg SID, Day 51",(100) percent
same,geometric mean live adult flea count,"oral 60 mg/kg SID, Day 58",0.2
same,geometric mean percent reduction in live adult flea counts compared to the untreated control group,"oral 60 mg/kg SID, Day 58",(99.8) percent
same,geometric mean live adult flea count,"oral 60 mg/kg SID, Day 72",0.0
same,geometric mean percent reduction in live adult flea counts compared to the untreated control group,"oral 60 mg/kg SID, Day 72",(100) percent
same,geometric mean live adult flea count,"oral 60 mg/kg SID, Day 86",1.8
same,geometric mean percent reduction in live adult flea counts compared to the untreated control group,"oral 60 mg/kg SID, Day 86",(97.7) percent
same,geometric mean live adult flea count,"oral 60 mg/kg SID, Day 93",1.9
same,geometric mean percent reduction in live adult flea counts compared to the untreated control group,"oral 60 mg/kg SID, Day 93",(97.5) percent
same,geometric mean live adult flea count,"oral 60 mg/kg SID, Day 100",5.2
same,geometric mean percent reduction in live adult flea counts compared to the untreated control group,"oral 60 mg/kg SID, Day 100",(93.7) percent
same,geometric mean live adult flea count,"oral 60 mg/kg SID, Day 107",3.2
same,geometric mean percent reduction in live adult flea counts compared to the untreated control group,"oral 60 mg/kg SID, Day 107",(96.2) percent

# Reference: US20100286076A1, “ECTOPARASITICIDAL METHODS AND FORMULATIONS” (priority 2009, published 2010)
